# In patent US5126258A (priority 1988, dated 1992):
# Legend:
# [1] = system: 7E5; assay: Hydrolysis of reactant ligands by receptor 7E5; assay type: biochemical, mouse; parameters: key to hydrolysis by 7E5, symbol: --: No hydrolysis observed; details: pH 8.0; for hydrolysis by 7E5, symbol: 19: 2/5 uM, 21: 5/10 uM receptor/ligand
# Experimental: (§1) ^1 Preliminary initial hydrolyses shown as the percentage of admixed
# (§2) reactant ligand consumed for catalyzed and spontaneous hydrolyses. "--" =
# (§3) No hydrolysis observed. "NT" = Not tried. All reactions were carried out
# (§4) at pH 8.0 in a 50 mM phosphate buffer unless otherwise noted. Hydrolytic
# (§5) percentages were determined by HPLC using a Hitachi model 655A12 liquid
# (§6) chromatograph with a C18 Vydac 201TP54 column, except as noted below.
# (§7) Mixtures of acetonitrile a nd water containing 0.1 percent trichloroaceti
# (§8) acid [28:72-50:50 (v/v)] were used as elutant. Hydrolyses of Compounds 5
# (§9) and 20 were assayed using fluorescence data.
# (§10) ^2 Concentrations of receptor molecules (Rec.) and reactant ligands
# (§11) (Lig.) in micromolar units, presuming a molecular weight of 150,000
# (§12) daltons for each receptor molecule.
# (§13) ^3 Reactant ligand (Lig.) used as substrate.
# (§14) ^4 Time in hours that the reaction was permitted to take place.
# (§15) ^5 Spontaneous hydrolytic percentages for the time period indicated.
# (§16) ^6 Reaction carried out at pH 7.2 in a 50 mM phosphate buffer.
# [2] = system: 21G2; assay: Hydrolysis of reactant ligands by receptor 21G2; assay type: biochemical, mouse; parameters: key to hydrolysis by 21G2, symbol: --: No hydrolysis observed; details: pH 8.0; for hydrolysis by 21G2, symbol: 19: 2/5 uM, 21: 5/10 uM receptor/ligand
# Experimental: as §1, §2, §3, §4, §5, §6, §7, §8, §9, §10, §11, §12, §13, §14, §15, §16
# [3] = system: eight monoclonal receptors 21G2, 7E5, 37G2, 13E10, 12C9, 44A2, 17G8 and 22F5; assay: Catalyzed hydrolysis of reactant ligands by the eight QPN1 monoclonal receptors, summary; assay type: biochemical, mouse; details: pH 8.0
# Experimental: Mice were hyperimmunized with the Compound 13-KLH conjugate over a three to four week time period. Sera were assayed in an ELISA using a Compound 13-BSA conjugate bound to microtiter plate wells as the solid-phase antigen. Cloned hybridomas were also screened using that ELISA assay.
# Each of those catalyses could be inhibited by an appropriate analog-ligand. Thus, a relatively high percentage of induced monoclonal receptors was capable of catalyzing an esterolytic reaction. The reason for this relatively high percentage of useful receptors being induced is unknown, but could be due to the presence of phosphonamidate group nitrogen atom, as compared to a phosphonate oxygen atom, or to the quinoline nucleus of the analog-ligand. Those eight catalytic monoclonal receptors and the hybridomas that secrete them are identified by the laboratory designations "QPN1 7E5", "QPN1 12C9", "QPN1 13E10", "QPN1 17G8", "QPN1 21G2", "QPN1 22F5", "QPN1 37G2" and QPN1 44A2. The prefix "QPNI" is sometimes omitted herein when discussing these hybridomas and receptors.
# Amide cleavage for Compounds 14 and 15 was assayed by analyzing for the production of free aminoquinaldine or aminonaphthalene by measuring the increase in the azo dye that results from derivatizing the free aminoquinaldine or aminonapthalene with a diazotization reagent.
# Catalysis reactions were conducted by preparing a reaction admixture of 100 microliters (ul) total volume containing 5 micromolar (uM) monoclonal antibody, 50-75 uM amide reactant ligand substrate and a buffer described hereinafter. The buffer included in the above admixture varied depending upon the pH utilized as follows: pH 5, 10 […] sodium acetate, 10 mM sodium chloride; pH 7.2, 10 mM sodium phosphate, 0.15 molar (M) sodium chloride; pH 8.0; 50 mM sodium phosphate. The amide-containing substrates screened in this assay were added to the above admixture in 1 ul of a 100-fold concentrated stock solution of dimethyl formamide (DMF). Monoclonal antibody was added to the above admixture from a concentrated stock solution. The resulting admixture was placed into the well of a 96 well flat bottom microtiter plate (Costar, Cambridge, Mass.) and maintained in a moist vapor environment chamber at 23 degrees C. The production of aminoquinaldine or aminonaphthalene was then assayed as described below after 2,3,5, or 6 days.
# The aminoquinaldine or aminonapthalene product produced by the catalyzed reaction was measured by first admixing 20 ul of 5M HCl, 80 ul acetone and 10 ul 0.5% (w/v) sodium nitrite to the reaction admixture to form a second admixture and maintaining that second admixture for 3 minutes at room temperature. Thereafter, 10 ul 2.5% (w/v) ammonium sulfamate was added to form a third admixture that was maintained for 2 minutes at room temperature. A still further 10 ul of 0.5% (w/v) N-(1-napthyl)ethylenediamine dihydrochloride was added to form a fourth admixture that was then maintained for 15 minutes at room temperature. Thereafter the resulting azo dye present in the fourth admixture was measured by absorbance spectroscopy at 540 nanometers (nm) for aminoquinaldine using a Model EL 309 Automated Microplate Reader (Bio-Tek Instruments, Winooski, Vt.).
# [4] = system: 22F5; assay: Hydrolysis of reactant ligands by receptor 22F5; assay type: biochemical, mouse; parameters: key to hydrolysis by 22F5, symbol: --: No hydrolysis observed; details: pH 8.0; for hydrolysis by 22F5, symbol: 19: 2/5 uM, 21: 5/10 uM receptor/ligand
# Experimental: as §1, §2, §3, §4, §5, §6, §7, §8, §9, §10, §11, §12, §13, §14, §15, §16
# [5] = system: 1209; assay: Hydrolysis of reactant ligands by receptor 12C9 (column head prints 1209); assay type: biochemical, mouse; parameters: key to hydrolysis by 1209, symbol: --: No hydrolysis observed; details: pH 8.0; for hydrolysis by 1209, symbol: 19: 2/5 uM, 21: 5/10 uM receptor/ligand
# Experimental: as §1, §2, §3, §4, §5, §6, §7, §8, §9, §10, §11, §12, §13, §14, §15, §16
# [6] = system: 13E10; assay: Hydrolysis of reactant ligands by receptor 13E10; assay type: biochemical, mouse; parameters: key to hydrolysis by 13E10, symbol: --: No hydrolysis observed; details: pH 8.0; for hydrolysis by 13E10, symbol: 19: 2/5 uM, 21: 5/10 uM receptor/ligand
# Experimental: as §1, §2, §3, §4, §5, §6, §7, §8, §9, §10, §11, §12, §13, §14, §15, §16
# [7] = Spontaneous (uncatalyzed, background) hydrolysis; assay type: physicochemical; parameters: key to Spon. (spontaneous hydrolysis), symbol: --: No hydrolysis observed; details: for Spon. (spontaneous hydrolysis), symbol: pH 8.0
# Experimental: The practical range of pH for the assay is limited by the rapid spontaneous rate of hydrolysis of an ester Compound 5 above pH 8.0. Initially, the ester was used at a concentration that was about four-fold greater than that of the protein, and the mixture was incubated at pH 7.2 for 10 minutes. Any change in fluorescence above background was noted.
# The lack of spectroscopic distinction between such esters and their hydrolysis products recommended a chromatographic analysis of the process. Referring to FIG. 3, a mixture of Compound 7 (5 uM) and the monoclonal antibody from hybridoma P3 6D4 (0.1 uM) in phosphate buffer (50 mM, pH 8.0) was analyzed over time by high performance liquid chromatography (HPLC). The accelerated hydrolysis of the ester was apparent from the decrease of its peak and the concurrent increase in two new peaks that correspond with the expected products. Under these conditions, the ester is completely consumed in 60-80 minutes during which time the background rate accounts for about 12 to 16 percent hydrolysis. The chromatographic profile is the same as that produced by treatment with hog liver esterase.
# ^c The rate constants were determined spectrophotometrically (at 245
# nm) by measuring initial rates at five concentrations of ester.
# as §1, §2, §3, §4, §5, §6, §7, §8, §9, §15
# Reaction kinetics were studied using three reactant ligands as substrates for monoclonal receptors 37G2 and 22F5. Data from initial rates were consistent with Michaelis-Menten reaction mechanism for a usual enzyme-substrate system. Initial rates were followed using at 271 nm using a U.V.-visible spectorphotometer for Compound 17, and a fluorescence spectrometer for Compounds 5 and 20, using an excitation wavelength of 355 nm and an emission wavelength of 455 nm for both compounds.
# [8] = system: 44A2; assay: Hydrolysis of reactant ligands by receptor 44A2; assay type: biochemical, mouse; parameters: key to hydrolysis by 44A2, symbol: --: No hydrolysis observed; details: pH 8.0; for hydrolysis by 44A2, symbol: 19: 2/5 uM, 21: 5/10 uM receptor/ligand
# Experimental: as §1, §2, §3, §4, §5, §6, §7, §8, §9, §10, §11, §12, §13, §14, §15, §16
# [9] = system: 17G8; assay: Hydrolysis of reactant ligands by receptor 17G8; assay type: biochemical, mouse; parameters: key to hydrolysis by 17G8, symbol: --: No hydrolysis observed; details: pH 8.0; for hydrolysis by 17G8, symbol: 19: 2/5 uM, 21: 5/10 uM receptor/ligand
# Experimental: as §1, §2, §3, §4, §5, §6, §7, §8, §9, §10, §11, §12, §13, §14, §15, §16
# [10] = system: 37G2; assay: Hydrolysis of reactant ligands by receptor 37G2; assay type: biochemical, mouse; parameters: key to hydrolysis by 37G2, symbol: --: No hydrolysis observed; details: pH 8.0; for hydrolysis by 37G2, symbol: 19: 2/5 uM, 21: 5/10 uM receptor/ligand
# Experimental: as §1, §2, §3, §4, §5, §6, §7, §8, §9, §10, §11, §12, §13, §14, §15, §16
# [11] = receptor/ligand uM, time h: 17 1/10, 2, 18 2/10, 24, 20 2/10, 0.33, 5 1/5, 0.33, 22 5/10, 3.5, preliminary
"hydrolysis by 7E5, symbol [1]","hydrolysis by 21G2, symbol [2]","hydrolysis by 22F5, symbol [4]","hydrolysis by 1209, symbol [5]","hydrolysis by 13E10, symbol [6]","hydrolysis by 44A2, symbol [8]","hydrolysis by 17G8, symbol [9]","hydrolysis by 37G2, symbol [10]","hydrolysis by 7E5 [1, 11]","hydrolysis by 21G2 [2, 11]","hydrolysis by 22F5 [4, 11]","hydrolysis by 1209 [5, 11]","hydrolysis by 13E10 [6, 11]","Spon. (spontaneous hydrolysis) ([7]; pH 8.0, 50 mM phosphate, time (h): 17 2, 18 24, 20 0.33, 5 0.33, 22 3.5)","hydrolysis by 44A2 [8, 11]","hydrolysis by 17G8 ([9]; receptor/ligand uM, time h: 18 2/10, 24, 20 2/10, 0.33, 5 1/5, 0.33, 22 5/10, 3.5, preliminary)","hydrolysis by 37G2 [10, 11]",SMILES,receptors (of eight) that catalyzed hydrolysis of the compound [3],"Spon. (spontaneous hydrolysis), symbol [7]"
--,--,--,--,--,--,--,--,,,,,,,,,,CC(=O)Nc1ccc(CC(=O)Nc2cccc3ccc(C)nc23)cc1 [Compound 14],none of the receptors catalyzed hydrolysis,--
--,--,--,--,--,--,--,--,,,,,,,,,,CC(=O)Nc1ccc(CC(=O)Oc2cccc3ccc(C)nc23)cc1 [Compound 16],failed to react,--
,,,,,,,,76 percentage of reactant ligand,72 percentage of reactant ligand,100 percentage of reactant ligand,56 percentage of reactant ligand,69 percentage of reactant ligand,34 percentage of reactant ligand,84 percentage of reactant ligand,84 percentage of reactant ligand,92 percentage of reactant ligand,CC(=O)Oc1cccc2ccccc12 [Compound 18],all of the receptors except 12C9 catalyzed the hydrolysis,
